{
  "source": "patent US10111869B2",
  "about": "“Reduction of opioid blood fluctuations” (priority 2009, dated 2018)",
  "origin": "cited, not measured here",
  "details": "in vivo",
  "data": [
    {"smiles": "COc1ccc2c3c1O[C@H]1C(=O)CC[C@@]4(O)[C@@H](C2)N(C)CC[C@]314", "note": "[Oxycodone]", "values": [
      {"measurement": "analgesic potency relative to morphine", "result": "about twice"}
    ]}
  ]
}
